In ChEMBL document CHEMBL4387714, “Four N-(E)-cinnamoyl (cinnamamide) derivatives of aminoalkanols with promising anticonvulsant and analgesic activity” (Bioorg Med Chem Lett, 2019) one finds Activity, Time and ED50 data, which are given here for two compounds.

The source made the active and inactive calls. No cut-off for these calls is given here.

The subject of data set [1] is Mus musculus. As to the kind of experiment: Analgesic activity in formalin-induced albino CF1 mouse model of hyperalgesia assessed as time spent in paw licking during acute phase at 186 mg/kg, ip administered 0.25 hrs prior to formalin challenge measured first 2 mins of five minutes test for 10 mins by formalin test relative to control. The data set is classed as functional.

For data set [2], the system named is Mus musculus. Put plainly: Analgesic activity in formalin-induced albino CF1 mouse model of hyperalgesia assessed as time spent in paw licking during inflammatory phase at 186 mg/kg, ip administered 0.25 hrs prior to formalin challenge measured first 2 mins of five minutes test for 10 mins by formalin test relative to control. The format is functional.
The test system of data set [3] is Mus musculus. As to the kind of experiment: Neuroprotective activity against controlled cortical impact-induced C57Bl/6 acute mouse model of traumatic brain injury assessed as lesion volume at 54 mg/kg, ip administered twice daily for 3 days starting from 0.5 hrs post controlled cortical impact challenge measured post-last dose by naurotrace 435/455 staining-based fluorescent microscopy (reference value: 11.9 +/- 0.7 mm3). The data set is classed as functional.

Data set [4] relates to Brain. Put plainly: In vitro anticonvulsant activity in kainic acid-induced albino Sprague Dawley rat brain assessed as blockade of ACSF-stimulated spontaneous electrographic seizure-like activity in medial entorhinal cortex hippocampal brain slices by measuring burst duration at 100 uM measured after 20 mins relative to control. The data set is classed as functional.
Data set [5] concerns Mus musculus. As to the kind of experiment: Anticonvulsant activity in albino CF1 mouse assessed as metrazol dose causing first clonus at 196 mg/kg, ip administered 0.25 hrs prior to MTZ challenge (reference value: 30.9 +/- 1.6 mg/kg). The data set is classed as functional.
Data set [6] concerns Mus musculus. Put plainly: Anticonvulsant activity in albino CF1 mouse assessed as metrazol dose causing first clonus at 54 mg/kg, ip administered 0.25 hrs prior to MTZ challenge (reference value: 30.9 +/- 1.6 mg/kg). The format is functional.
Data set [7] deals with Mus musculus. As to the kind of experiment: Anticonvulsant activity in albino CF1 mouse model of metrazol-induced seizures assessed as metrazol dose causing first twitch at 196 mg/kg, ip administered 0.25 hrs prior to MTZ challenge (reference value: 27.6 +/- 1.3 mg/kg). The format is functional.
For data set [8], the system named is Mus musculus. Put plainly: Anticonvulsant activity in albino CF1 mouse model of metrazol-induced seizures assessed as metrazol dose causing first twitch at 54 mg/kg, ip administered 0.25 hrs prior to MTZ challenge (reference value: 27.6 +/- 1.3 mg/kg). The data set is classed as functional.
Data set [9] concerns Mus musculus. As to the kind of experiment: Anticonvulsant activity in albino CF1 mouse assessed as time to clonus at 196 mg/kg, ip administered 0.25 hrs prior to MTZ challenge (reference value: 29 +/- 1.6 s). The data set is classed as functional.
The subject of data set [10] is Mus musculus. As to the kind of experiment: Anticonvulsant activity in albino CF1 mouse assessed as time to clonus at 54 mg/kg, ip administered 0.25 hrs prior to MTZ challenge (reference value: 29 +/- 1.6 s). The format is functional.
Data set [11] concerns Mus musculus. As to the kind of experiment: Anticonvulsant activity in albino CF1 mouse model of metrazol-induced seizures assessed as time to twitch at 54 mg/kg, ip administered 0.25 hrs prior to MTZ challenge (reference value: 25.9 +/- 1.3 s). The data set is classed as functional.
For data set [12], the system named is Mus musculus. As to the kind of experiment: Anticonvulsant activity in albino CF1 mouse model of metrazol-induced seizures assessed as time to twitch at 196 mg/kg, ip administered 0.25 hrs prior to MTZ challenge (reference value: 25.9 +/- 1.3 s). The data set is classed as functional.
Data set [13] is described as follows: Toxicity in albino CF1 mouse assessed as body weight at 54 mg/kg, ip measured at 0.25 hrs (reference value: 26.5 +/- 0.3 g). The format is organism-based. The conditions noted are these: in vivo.
Data set [14] is described as follows: Toxicity in albino CF1 mouse assessed as body weight at 196 mg/kg, ip measured at 0.25 hrs (reference value: 26.5 +/- 0.3 g). The data set is classed as organism-based. The conditions noted are these: in vivo.
Data set [15] concerns Mus musculus. Put plainly: Anticonvulsant activity in ip dosed 60-Hz corneal stimulation-induced full kindling albino CF1 mouse model of epilepsy assessed as reduction in seizure score treated 0.25 hrs prior to 60-Hz corneal stimulation. The data set is classed as functional.
Data set [16] has as its system Mus musculus. Put plainly: Anticonvulsant activity in 60-Hz corneal stimulation-induced full kindling albino CF1 mouse model of epilepsy assessed as reduction in seizure score at 94 mg/kg, ip administered 0.25 hrs prior to 60-Hz corneal stimulation. The format is functional, organism-based.
The test system of data set [17] is Brain. As to the kind of experiment: In vitro anticonvulsant activity in kainic acid-induced albino Sprague Dawley rat brain assessed as blockade of ACSF-stimulated spontaneous electrographic seizure-like activity in medial entorhinal cortex hippocampal brain slices by measuring burst rate at 100 uM measured after 20 mins relative to control. The format is functional.

In the case of `O=C(/C=C/c1ccc(Cl)cc1)N[C@H]1CC[C@H](O)CC1`, the Activity is recorded as 21.89% in the data set on Mus musculus [1] and 0% in the data set on Mus musculus [2].

On to `CCC(CO)NC(=O)/C=C/c1ccc(Cl)cc1` (racemic), for which the Activity in the data set on Mus musculus [3] amounted to 11.44 mm3; with Brain [4], 90%; with Mus musculus [5], 98.6 mg/kg; in the data set with Mus musculus [6], 44.9 mg/kg; with Mus musculus [7], 68.7 mg/kg; in the data set with Mus musculus [8], 36.2 mg/kg. Moreover, the Activity is reported as 26.5 g in data set [13], 26 g in [14] and 87% in the data set on Brain [17]. For the same compound, the Time was found to be 90.2 s with Mus musculus [9], 42.1 s in the data set on Mus musculus [10], 33.9 s in the data set with Mus musculus [11] and 63 s with Mus musculus [12]. In the data set on Mus musculus [15], the ED50 is 25.7 mg/kg. The result with Mus musculus [16] was Active.
